Measured values as given in patent US7910723B2, “IG20 splice variants therapeutics for cancer” (The Board of Trustees of the University of Illinois, priority 2006, dated 2011).

Legend:
Assay type in all cases: cell-based
HeLa cells = test: Cell growth: trypan blue-negative viable cell count, HeLa; conditions: relative to controls
Protocol: Cell Growth. 24 hours post-transduction, HeLa cells were plated as described in materials and methods. Cells were then harvested and viable cells (trypan blue negative cells) were counted on indicated days. Data represent Mean+SD of triplicates. Cell proliferation. 24 hours post-transduction HeLa cells were stained with CF SE-red (SNARF-1 carboxylic acid, acetate, succinimidyl ester), harvested on indicated days and evaluated for CFSE-dilution by FACS. The numbers on the histograms indicate geometric peak mean intensities of CFSE staining in the transduced cells. Cell survival. Crystal violet staining of cells surviving upon IG20 down-modulation after transduction shown C-G.
In order to assess the effects on cell growth and proliferation, various shRNA-expressing viable cells were counted. […] The cells were stained with CFSE and cell division was monitored. […] Further confirmation was obtained by plating equal numbers of HeLa cells expressing various shRNAs and determining the number and size of colonies after 12 days.
Cell Proliferation. 24 hours post-transduction, 5×10^5 HeLa or 8×10^5 PA-1 cells were plated into six-well plates. Every other day, cells were collected, washed and stained with trypan blue, and trypan blue-negative viable cells were counted.

caspase-8 = test: Immunoblot of caspase-8 processing in transduced PA-1 cells; conditions: PA-1, 48 h post-transduction
Protocol: To gain insight into the mechanism underlying MADD-mediated cell survival, whether caspases were activated upon abrogation of MADD expression examined. HeLa cells and PA-1 cells were collected 48 h post-transduction and probed for caspase-8 and FADD, which are components of the DISC. […] TRAIL treatment results in recruitment of procaspase-8 to the receptors followed by its cleavage resulting in its activation. The cleaved intermediate fragments (p43/p41) and the catalytically active subunits of caspase-8 (p18) were detected upon TRAIL treatment. Caspase-8 is the initiator caspase that can cause activation of the effector caspase-3. A decrease in the amount of pro-caspase-3 indicates its cleavage to form active caspase-3 only in MADD-depleted cells.
Immunoblotting. The membranes were blocked in 5% non-fat dry milk in PBS-Tween (PBS with 0.05% Tween 20) for 1 hour. Primary antibodies were used at a concentration of 1 μg/mL and the secondary antibodies were used at a 1:10000 concentration. The blots were developed by enhanced chemiluminescence according to the manufacturer's protocol (Pierce Biotechnology Inc., Rockford, Ill.).

14-3-3 = test: Association of endogenous MADD with 14-3-3 in HeLa cells (immunoprecipitation); conditions: LY 10 μM 1 h
Protocol: (A) Cellular distributions of wtMADD and MADD3A. HEK293 cells were transfected with wtMADD or MADD3A. 36 h after transfection, the cells were harvested and membrane andcytosolic fractions were prepared. Immunoblotting was performed using an anti-YFP antibody. Actin and caveolin-1 were used as loading controls. (B) […]. HEK293 cells were transfected with wtMADD or MADD3A. 36 h after transfection, the cells were harvested for immunoprecipitation using an anti-14-3-3 antibody followed by immunoblotting using an anti-YFP antibody for detecting exogenous MADD. The membrane was reprobed with an anti-14-3-3 antibody to show protein loading. (C) Inhibition of PI3K can lead to the association of wtMADD with 14-3-3. HEK293 cells were transfected with wtMADD. Cells were serum starved for 20 h and treated with LY (10 μM) for 1 h. Immunoprecipitation was performed using an anti-14-3-3 antibody, followed by immunoblotting using an anti-YFP or an anti-14-3-3 antibody. (D) Inhibition of Akt can result in the association of wtMADD with 14-3-3. HEK293 cells were co-transfected with wtMADD along with DN-Akt or pcDNA. […]
To explore the molecular mechanism by which nonphosphorylated MADD can trigger apoptosis, the cellular localization of phosphorylated and nonphosphorylated MADD was determined. […]
Immunoprecipitation. […] Immunoblots were prepared and analysed as described above.

Row | Compound | Numbers of viable cells (HeLa cells) | Intermediate active-caspase-8 proteins (p43/41) (caspase-8) | Binding of endogenous MADD to 14-3-3 (14-3-3)
1 | 13L-shRNA: shRNA targeting exon 13L (IG20, MADD), 5′ CGGCGAATCTATGACAATC-3′ (SEQ ID NO: 4) | significant decrease in the numbers of viable cells | higher amounts of the intermediate active-caspase-8 proteins (p43/41) | –
2 | O=c1cc(N2CCOCC2)oc2c(-c3ccccc3)cccc12 [LY] | – | – | could bind to 14-3-3 only in the presence, but not in the absence, of LY
